Values after ≈ are worked out from the molar mass of the structure shown.
Key:
[1] = molecular target: T1, Hematopoietic prostaglandin D synthase (Rattus norvegicus, UniProt O35543); test: Inhibition of H-PGDS in rat RBL cells assessed as reduction in A23187-induced PGD2 production pretreated for 30 mins followed by A23187 addition for 30 mins by RapidFire Mass spectrometry; format: cell-based
T1 sequence (O35543 whole entry): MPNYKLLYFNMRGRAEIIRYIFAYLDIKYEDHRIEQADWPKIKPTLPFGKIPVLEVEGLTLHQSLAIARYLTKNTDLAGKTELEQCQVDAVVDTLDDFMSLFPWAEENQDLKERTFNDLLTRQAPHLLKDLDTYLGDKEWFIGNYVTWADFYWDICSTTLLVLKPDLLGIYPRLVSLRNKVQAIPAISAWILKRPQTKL

[2] = Dissociation constant, pKa of the compound by UV spectroscopy or potentiometric analysis; format: physicochemical
[3] = molecular target: Hematopoietic prostaglandin D synthase (Homo sapiens, UniProt O60760); test: Inhibition of human H-PGDS expressed in Escherichia coli BL21 DE3 cells assessed as reduction in PGD2 production using PGH2 as substrate by RapidFire High Throughput Mass spectrometry
Sequence of Hematopoietic prostaglandin D synthase (Homo sapiens, UniProt O60760) (O60760 whole entry): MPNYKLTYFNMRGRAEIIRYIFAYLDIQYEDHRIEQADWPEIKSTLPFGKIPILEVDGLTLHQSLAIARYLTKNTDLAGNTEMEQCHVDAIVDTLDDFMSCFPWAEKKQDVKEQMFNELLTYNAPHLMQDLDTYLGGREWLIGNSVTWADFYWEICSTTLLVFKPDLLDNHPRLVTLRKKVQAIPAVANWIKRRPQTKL

[4] = Half life in mouse liver microsomes pretreated for 5 mins followed by incubation with NADP for 30 secs and measured upto 45 mins by LC-MS/MS analysis; format: ADME, Microsome; conditions: time 3030 sec
[5] = Dose normalized AUC in mouse at 3 mg/kg, po; format: ADME, organism-based; design: unit not given here; conditions: in vivo
Albumin = Albumin (Homo sapiens, UniProt P02768); test: Protein binding in human serum albumin by HPLC analysis; format: ADME, cell-free; conditions: read-out: PB (converted)
Sequence of Albumin (P02768 whole entry): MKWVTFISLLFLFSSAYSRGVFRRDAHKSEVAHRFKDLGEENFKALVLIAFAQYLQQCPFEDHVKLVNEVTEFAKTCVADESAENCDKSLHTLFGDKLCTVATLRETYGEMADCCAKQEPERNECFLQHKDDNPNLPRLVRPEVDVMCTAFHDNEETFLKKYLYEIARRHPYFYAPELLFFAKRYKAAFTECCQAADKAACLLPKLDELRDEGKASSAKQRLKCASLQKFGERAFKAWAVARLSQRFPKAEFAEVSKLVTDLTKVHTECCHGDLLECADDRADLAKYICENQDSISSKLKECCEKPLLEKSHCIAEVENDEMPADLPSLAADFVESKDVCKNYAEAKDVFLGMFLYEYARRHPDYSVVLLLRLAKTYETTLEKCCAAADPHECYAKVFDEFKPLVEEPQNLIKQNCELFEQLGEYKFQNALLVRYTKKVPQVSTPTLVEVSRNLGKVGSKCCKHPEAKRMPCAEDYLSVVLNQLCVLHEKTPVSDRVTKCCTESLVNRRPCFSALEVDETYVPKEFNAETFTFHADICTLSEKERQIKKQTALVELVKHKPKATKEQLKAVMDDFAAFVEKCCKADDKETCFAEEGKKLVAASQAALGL

[6] = Solubility of the compound in FaSSIF at pH 6.5 measured after 4 hrs by HPLC-UV analysis; format: ADME
[7] = Half life in mouse S9 fraction pretreated for 5 mins followed by incubation with NADP for 30 secs and measured upto 45 mins by LC-MS/MS analysis; format: ADME, subcellular; conditions: time 3030 sec
[8] = Apparent permeability, Papp of the compound at pH 7.4 incubated for 3 hrs by AMP based liquid chromatography; format: ADME; conditions: not told
[9] = Terminal half life in mouse at 1 mg/kg, iv; format: ADME, organism-based; conditions: in vivo
[10] = Oral bioavailability in mouse at 3 mg/kg; format: ADME, organism-based; conditions: in vivo
[11] = Ratio of drug level in brain to blood in mouse at 1 mg/kg, iv; format: ADME, organism-based; conditions: read-out: BBR
[12] = Toxicity in chronic eccentric muscle damage C57BL/6N mouse model assessed as seizure-like activity at >=10 mg/kg, po and measured after 4 days; format: organism-based; conditions: in vivo, 96 h, time 4 day
[13] = Toxicity in chronic eccentric muscle damage C57BL/6N mouse model assessed as adverse effects at <=6 mg/kg, po administered for 60 days; format: organism-based; conditions: in vivo, 1440 h, time 60 day
[14] = Volume of distribution at steady state in mouse at 1 mg/kg, iv; format: ADME, organism-based; conditions: in vivo, read-out: Vdss
[15] = Clearance in mouse at 1 mg/kg, iv; format: ADME, organism-based; conditions: in vivo

EC50 [1]	pKa [2]	IC50 [3]	half-life [4]	AUC/dose [5]	fraction unbound (Albumin)	solubility at 4 h [6]	half-life [7]	Papp at 3 h [8]	half-life ([9]; read-out: beta t1/2 (converted))	SMILES	beta t1/2 ([9]; iv, 1 mg/kg)	bioavailability [10]	Kp [11]	Activity [12]	Activity [13]	Vd [14]	clearance [15]
30000 nM	3.02	1800 nM								CC(C)(O)[C@H]1CC[C@H](NC(=O)c2cnc3ccccc3c2)CC1							
> 50000 nM	< 2	7900 nM								COc1ccc2cc(C(=O)N[C@H]3CC[C@H](C(C)(C)O)CC3)nnc2c1							
150 nM	2.58	30 nM	> 3 h	64.9	0.27	24 µg/mL (≈ 69.9 µM)				COc1ccc2cc(C(=O)N[C@H]3CC[C@H](C(C)(C)O)CC3)cnc2n1							
94 nM		14 nM		1040	0.16	27 µg/mL (≈ 76.4 µM)	> 3 h	16.5 ×10⁻⁶ cm/s	1.1 h	CC(C)(O)[C@H]1CC[C@H](NC(=O)c2cnc3cc(C4CC4)ncc3c2)CC1		130%	0.17			1.6 L/kg	22 mL/min/kg
450 nM		56 nM		46.9	0.48	460 µg/mL (≈ 1470 µM)	> 3 h	3.8 ×10⁻⁶ cm/s		C[C@]1(O)C[C@@H](NC(=O)c2cnc3cc(N4CCC4)ncc3c2)C1							
14 nM		4.4 nM		73.7	0.22	270 µg/mL (≈ 706 µM)	> 3 h	2.5 ×10⁻⁶ cm/s		C[C@H]1CCN1c1ccc2cc(C(=O)N[C@H]3CC[C@H](C(C)(C)O)CC3)cnc2n1							
190 nM	< 2	45 nM	> 3 h	104	0.33	85 µg/mL (≈ 248 µM)		6.1 ×10⁻⁶ cm/s		COc1cc2ncc(C(=O)N[C@H]3CC[C@H](C(C)(C)O)CC3)cc2cn1							
14 nM		4.6 nM	> 3 h	252	0.19	120 µg/mL (≈ 363 µM)		3 ×10⁻⁶ cm/s		O=C(N[C@H]1CCNC1=O)c1cnc2nc(C3CC3)c(Cl)cc2c1							
740 nM	< 2	180 nM								COc1cnc2cc(C(=O)N[C@H]3CC[C@H](C(C)(C)O)CC3)cnc2c1							
2000 nM	< 2	140 nM								COc1ncc2cc(C(=O)N[C@H]3CC[C@H](C(C)(C)O)CC3)cnc2n1							
39000 nM	2.74	7700 nM								CC(C)(O)[C@H]1CC[C@H](NC(=O)c2cnc3cnccc3c2)CC1							

The remaining lines, values behind:

SMILES	EC50 [1]	pKa [2]	IC50 [3]	half-life [4]	AUC/dose [5]	fraction unbound (Albumin)	solubility at 4 h [6]	half-life [7]	Papp at 3 h [8]	half-life ([9]; read-out: beta t1/2 (converted))	beta t1/2 ([9]; iv, 1 mg/kg)	bioavailability [10]	Kp [11]	Activity [12]	Activity [13]	Vd [14]	clearance [15]
O=C(N[C@H]1CCNC1=O)c1cnc2cc(N3CCC3)ncc2c1	110 nM		12 nM		250	0.41	400 µg/mL (≈ 1280 µM)	> 3 h	< 1 ×10⁻⁶ cm/s								
CC(C)(O)[C@H]1CC[C@H](NC(=O)c2cnc3cc(OC(F)F)ccc3c2)CC1	160 nM	2.43				0.12	70 µg/mL (≈ 185 µM)	> 3 h			3.8 h	61%	0.59	Toxic	Non-Toxic	1.7 L/kg	5.6 mL/min/kg
CC(C)(O)[C@H]1CC[C@H](NC(=O)c2cnc3nc(N4CCC4)ccc3c2)CC1	75 nM		5.3 nM		72.5	0.2	3 µg/mL (≈ 8.14 µM)	> 3 h	2.3 ×10⁻⁶ cm/s								
CC(C)(O)[C@H]1CC[C@H](NC(=O)c2cnc3cc(N4CCC4)ncc3c2)CC1	24 nM		3.9 nM		41	0.21	11 µg/mL (≈ 29.9 µM)	2.68 h	7.8 ×10⁻⁶ cm/s								
COc1ccc2c(c1)N=CN(C(=O)N[C@H]1CC[C@H](C(C)(C)O)CC1)C2	4300 nM	4.31	890 nM														
CC(C)(O)[C@H]1C[C@H](NC(=O)c2cnc3nc(C4CC4)c(Cl)cc3c2)C1	11 nM		3.9 nM	> 3 h	45.2	0.12	46 µg/mL (≈ 128 µM)		28 ×10⁻⁶ cm/s								
COc1ccc2nc(C(=O)N[C@H]3CC[C@H](C(C)(C)O)CC3)cnc2c1	3200 nM	< 2	490 nM														
COc1ccc2cc(C(=O)N[C@H]3CC[C@H](C(C)(C)O)CC3)cnc2c1	100 nM	3.59															
O=C(N[C@H]1CCNC1=O)c1cnc2cc(C3CC3)ncc2c1	260 nM		110 nM	2.45 h	262	0.57	430 µg/mL (≈ 1450 µM)		3 ×10⁻⁶ cm/s								
C[C@]1(O)C[C@@H](NC(=O)c2cnc3nc(C4CC4)c(Cl)cc3c2)C1	54 nM		7.1 nM	> 3 h	152	0.13	31 µg/mL (≈ 93.4 µM)		22 ×10⁻⁶ cm/s								
CC(C)(O)[C@H]1CC[C@H](NC(=O)c2cnc3cc(N4CC(F)C4)ncc3c2)CC1	170 nM		12 nM		19.3	0.27	13 µg/mL (≈ 33.6 µM)	> 3 h									

From ChEMBL document CHEMBL5260850, “The exploration of aza-quinolines as hematopoietic prostaglandin D synthase (H-PGDS) inhibitors with low brain exposure” (Bioorg Med Chem, 2020)
